Experimental data taken from ChEMBL document CHEMBL5154661, “Novel 2-phenyl-3-(Pyridin-2-yl) thiazolidin-4-one derivatives as potent inhibitors for proliferation of osteosarcoma cells in vitro and in vivo” (Eur J Med Chem, 2022).
pIC50: −log10 of the molar value. Activity calls are given as the source filed them. The calls are words filed in the database; no cut-off is given here.

Experiments:
[1] = AUC(0 to infinity) in male ICR mouse at 62.5 mg/kg, ip measured upto 24 hrs by LC-MS/MS analysis; format: ADME, organism-based; design: dose 62.5 mg/kg, time < 24 hrs, route ip; settings: in vivo
[2] = Half life in male ICR mouse at 62.5 mg/kg, ip measured upto 24 hrs by LC-MS/MS analysis; format: ADME, organism-based; settings: in vivo
[3] = tested on: SW1353; test: Antiproliferative activity against human SW1353 cells assessed as cell growth inhibition measured after 72 hrs by CCK-8 assay; format: functional, cell-based; settings: SW1353, 72 h
[4] = tested on: 143B; test: Antiproliferative activity against human 143B cells assessed as cell growth inhibition measured after 72 hrs by CCK-8 assay; format: functional, cell-based
[5] = Half life in male ICR mouse at 5 mg/kg, iv measured upto 24 hrs by LC-MS/MS analysis; format: ADME, organism-based; settings: in vivo
[6] = Toxicity in BALB/c nude mouse xenografted with human MNNG/HOS cells assessed as effect on kidney morphology by H and E staining assay at 62.5 mg/kg, ip administered twice per day for 18 days; format: organism-based, HOS-TE85; settings: in vivo, 432 h, time 18 day
[7] = Toxicity in BALB/c nude mouse xenografted with human MNNG/HOS cells assessed as effect on ratio of liver weight to body weight at 62.5 mg/kg, ip administered twice per day for 18 days; format: organism-based, HOS-TE85; settings: in vivo, 432 h, time 18 day
[8] = tested on: HOS-TE85; test: Cell cycle arrest in human MNNG/HOS cells assessed as accumulation at G2/M phase at 5 uM measured after 24 hrs by propidium iodide staining based flow cytometry(Rvb=21.2%); format: functional
[9] = Half life in male ICR mouse at 12.5 mg/kg, iv measured upto 24 hrs by LC-MS/MS analysis; format: ADME, organism-based; settings: in vivo
[10] = tested on: MG-63; test: Antiproliferative activity against human MG-63 cells with increase MYOF expression assessed as cell growth inhibition incubated for 72 hrs by CCK-8 assay; format: functional, cell-based; settings: MG-63, 72 h
[11] = Drug distribution in tumor of BALB/c nude mouse xenografted with human MNNG/HOS cells at 62.5 mg/kg,ip measured after 12 hrs; format: ADME, organism-based, Neoplasm, HOS-TE85; settings: read-out: Ct
[12] = tested on: HOS-TE85; test: Cell cycle arrest at human MNNG/HOS cells assessed as accumulation at G0/G1 phase at 5 uM measured after 24 hrs by propidium iodide staining based flow cytometry(Rvb=37.12%); format: functional
[13] = tested on: K562; test: Antiproliferative activity against human K562 cells with low MYOF expression assessed as cell growth inhibition incubated for 72 hrs by CCK-8 assay; format: functional, cell-based; settings: K562, 72 h
[14] = Toxicity in BALB/c nude mouse xenografted with human MNNG/HOS cells assessed as body weight loss at 62.5 mg/kg, ip administered twice per day for 18 days; format: organism-based, HOS-TE85; settings: in vivo, 432 h, time 18 day
[15] = tested on: HOS-TE85; test: Antiproliferative activity against human MNNG/HOS cells with low MYOF expression assessed as cell growth inhibition incubated for 72 hrs by CCK-8 assay; format: functional, cell-based; settings: HOS-TE85, 72 h
[16] = tested on: SAOS-2; test: Antiproliferative activity against human SAOS-2 cells assessed as growth inhibition measured after 72 hrs by CCK-8 assay; format: functional, cell-based; settings: SAOS-2, 72 h
[17] = Toxicity in BALB/c nude mouse xenografted with human MNNG/HOS cells assessed as effect on ratio of heart weight to body weight at 62.5 mg/kg, ip administered twice per day for 18 days; format: organism-based, HOS-TE85; settings: in vivo, 432 h, time 18 day
[18] = Toxicity in BALB/c nude mouse xenografted with human MNNG/HOS cells assessed as effect on ratio of kidney weight to body weight at 62.5 mg/kg, ip administered twice per day for 18 days; format: organism-based, HOS-TE85; settings: in vivo, 432 h, time 18 day
[19] = Plasma clearance in male ICR mouse at 12.5 mg/kg, iv measured upto 24 hrs by LC-MS/MS analysis; format: ADME, organism-based
[20] = Toxicity in BALB/c nude mouse xenografted with human MNNG/HOS cells assessed as effect on ratio of spleen weight to body weight at 62.5 mg/kg, ip administered twice per day for 18 days; format: organism-based, HOS-TE85; settings: in vivo, 432 h, time 18 day
[21] = Bioavailability in male ICR mouse at 62.5 mg/kg, ip measured upto 24 hrs by LC-MS/MS analysis; format: ADME, organism-based; settings: in vivo
[22] = Toxicity in ICR mouse at 300 mg/kg, ip administered daily for a week; format: organism-based; settings: in vivo
[23] = tested on: HOS-TE85; test: Inhibition of cell migration in human MNNG/HOS cells at 5 nM measured after 24 hrs by transwell assay; format: functional
[24] = tested on: HOS; test: Antiproliferative activity against human HOS cells assessed as cell growth inhibition measured after 72 hrs by CCK-8 assay; format: functional, cell-based
[25] = Toxicity in BALB/c nude mouse xenografted with human MNNG/HOS cells assessed as effect on heart morphology by H and E staining assay at 62.5 mg/kg, ip administered twice per day for 18 days; format: organism-based, HOS-TE85; settings: in vivo, 432 h, time 18 day
[26] = Toxicity in ICR mouse at 800 mg/kg, ip; format: organism-based; settings: in vivo
[27] = tested on: MG-63; test: Antiproliferative activity against human MG-63 cells assessed as cell growth inhibition measured after 72 hrs by CCK-8 assay; format: functional, cell-based; settings: MG-63, 72 h
[28] = Toxicity in BALB/c nude mouse xenografted with human MNNG/HOS cells assessed as effect on spleen morphology by H and E staining assay at 62.5 mg/kg, ip administered twice per day for 18 days; format: organism-based, HOS-TE85; settings: in vivo, 432 h, time 18 day
[29] = tested on: HOS-TE85; test: Antiproliferative activity against human MNNG/HOS cells assessed as cell growth inhibition measured after 72 hrs by CCK-8 assay; format: functional, cell-based; settings: HOS-TE85, 72 h
[30] = tested on: HOS-TE85; test: Cell cycle arrest at human MNNG/HOS cells assessed as accumulation at S phase at 5 uM measured after 24 hrs by propidium iodide staining based flow cytometry(Rvb=38.9%); format: functional
[31] = tested on: HOS-TE85; test: Antiproliferative activity against human MNNG/HOS cells with increase MYOF expression assessed as cell growth inhibition incubated for 72 hrs by CCK-8 assay; format: functional, cell-based; settings: HOS-TE85, 72 h
[32] = tested on: SJSA-1; test: Antiproliferative activity against human SJSA-1 cells with increase MYOF expression assessed as cell growth inhibition incubated for 72 hrs by CCK-8 assay; format: functional, cell-based; settings: SJSA-1, 72 h
[33] = Drug distribution in plasma of BALB/c nude mouse xenografted with human MNNG/HOS cells at 62.5 mg/kg,ip measured after 12 hrs; format: ADME, organism-based, HOS-TE85
[34] = tested on: HOS-TE85; test: Inhibition of cell migration in human MNNG/HOS cells at 20 nM measured after 24 hrs by wound healing assay relative to control; format: functional
[35] = tested on: U2OS; test: Antiproliferative activity against human U2OS cells assessed as cell growth inhibition measured after 72 hrs by CCK-8 assay; format: functional, cell-based
[36] = tested on: HL-60; test: Antiproliferative activity against human HL-60 cells with low MYOF expression assessed as cell growth inhibition incubated for 72 hrs by CCK-8 assay; format: functional, cell-based; settings: HL-60, 72 h
[37] = tested on: HOS-TE85; test: Antitumor activity against human MNNG/HOS cells xenografted in BALB/c nude mouse assessed as reduction in tumor weight at 62.5 mg/kg, ip administered twice per day for 18 days; format: functional, organism-based; settings: time 18.0 day
[38] = Cmax in male ICR mouse at 62.5 mg/kg, ip measured upto 24 hrs by LC-MS/MS analysis; format: ADME, organism-based; design: dose 62.5 mg/kg, time < 24 hrs, route ip; settings: in vivo
[39] = Cytotoxicity against human GES1 cells assessed as growth inhibition measured after 72 hrs by CCK-8 assay; format: toxicity, cell-based
[40] = Oral bioavailability in male ICR mouse at 25 mg/kg measured upto 24 hrs by LC-MS/MS analysis; format: ADME, organism-based; settings: in vivo
[41] = tested on: HOS-TE85; test: Antitumor activity against human MNNG/HOS cells xenografted in female BALB/c nude mouse assessed as tumor growth inhibition at 62.5 mg/kg, ip administered twice per day for 18 days relative to control; format: functional; settings: HOS-TE85, 432 h, time 18 day, read-out: TGI
[42] = tested on: SJSA-1; test: Antiproliferative activity against human SJSA-1 cells assessed as cell growth inhibition measured after 72 hrs by CCK-8 assay; format: functional, cell-based; settings: SJSA-1, 72 h
[43] = Cytotoxicity against human BMSC cells assessed as growth inhibition measured after 72 hrs by CCK-8 assay; format: toxicity, cell-based, HBMSC
[44] = AUC(0 to infinity) in male ICR mouse at 12.5 mg/kg, iv measured upto 24 hrs by LC-MS/MS analysis; format: ADME, organism-based; design: time < 24 hrs, dose 12.5 mg/kg, route iv; settings: in vivo
[45] = Toxicity in BALB/c nude mouse xenografted with human MNNG/HOS cells assessed as effect on liver morphology by H and E staining assay at 62.5 mg/kg, ip administered twice per day for 18 days; format: organism-based, HOS-TE85; settings: in vivo, 432 h, time 18 day

Cc1ccnc(N2C(=O)CS[C@@H]2c2cccc(C(=O)NCCCCn3cccn3)c2)c1
AUC(0-inf) [1]: 8410 ng·h/mL
half-life [2]: 38.5 min
pIC50 [3]: 7.70
pIC50 [4]: 7.53
half-life [5]: 23.4 min
Activity [6]: Non-Toxic
Activity [7]: Non-Toxic
Activity [8]: 10.21%
half-life [9]: 3.66 min
pIC50 [10]: 7.83
concentration at 12 h [11]: 110 nM
Activity [12]: 59.69%
pIC50 [13]: 7.55
Activity [14]: Non-Toxic
pIC50 [15]: 7.45
pIC50 [16]: 7.57
Activity [17]: Non-Toxic
Activity [18]: Non-Toxic
clearance [19]: 66.9 mL/min/kg
Activity [20]: Non-Toxic
bioavailability [21]: 52.1%
Activity [22]: Non-Toxic
inhibition at 0.005 µM [23]: 60%
pIC50 [24]: 7.29
Activity [25]: Non-Toxic
Activity [26]: Non-Toxic
pIC50 [27]: 7.83
Activity [28]: Non-Toxic
pIC50 [29]: 7.66
Activity [30]: 30.1%
pIC50 [31]: 7.50
pIC50 [32]: 7.21
concentration at 12 h [33]: 55.5 nM
inhibition at 0.02 µM [34]: 50%
pIC50 [35]: 7.58
pIC50 [36]: 7.72
Activity [37]: Active
Cmax [38]: 20500 ng/mL
IC50 at 72 h [39]: > 20000 nM
bioavailability [40]: 0.36%
inhibition in vivo at 62.5 mg/kg [41]: 52.9%
pIC50 [42]: 7.21
IC50 at 72 h [43]: > 10000 nM
AUC(0-inf) [44]: 3230 ng·h/mL
Activity [45]: Non-Toxic
